Structures are written as SMILES. Where two headings read alike, the source gives them in different places.

Two compounds from patent US20120149735A1, “1,4-Dihydropyridine Derivatives and Their Uses” (CENTRE HOSPITALIER REGIONAL UNIVERSITAIRE DE LILLE, priority 2009, published 2012) can be followed below.

Series [1] concerns the target T1, hCB2 cannabinoid receptor (Homo sapiens, UniProt P34972).
T1 construct: purchased PerkinElmer (Belgium)
The experiment in a line: Competition binding assay, hCB2 membranes, [3H]-CP-55,940. The method, then:
hCB1 and hCB2 membranes were purchased from PerkinElmer (Belgium). […] Glass fiber filters were purchased from Whatman (Maidstone, U.K.), while Aqualuma was from PerkinElmer (Schaesberg, The Netherlands). Stock solutions of the compounds were prepared in DMSO and further diluted […] with the binding buffer to the desired concentration. Final DMSO concentrations in the assay were less than 0.1%.
The test compounds were present at varying concentrations and the non-specific binding was determined in the presence of 10 μM HU-210. After 1 h the incubation was stopped and the solutions were rapidly filtered through 0.5% PEI pretreated GF/B glass fiber filters on a M-48T Brandell cell harvester and washed twice with 5 mL ice-cold binding buffer without serum albumin. […] Assays were performed at least in triplicate.
(§1) IC50 and EC50 values were determined by non-linear regression analysis performed using the GraphPad prism 4.0 program (GraphPad Software, San Diego). The Ki values (expressed as pKi) were calculated based on the Cheng-Prusoff equation: Ki=IC50/(1+L/Kd). Statistical signification of [^35S]-GTPγS assay results was assessed using an one-way ANOVA followed by a Dunett post-test.

In the next series the target is T2, hCB2 receptor (Homo sapiens, UniProt P34972).
T2 construct: purchased PerkinElmer (Belgium)
The experiment in a line: [35S]-GTPγS binding assay (CB2 functional activity assay). It counts as biochemical. As to conditions: for EC50: [35S]-GTPγS binding, hCB2. The method, then: The Emax value is determined by a CB2 functional activity assay (19, 20).
[^35S]-GTPγS binding Assays
[^35S]-GTPγS (1173 Ci/mmol) was purchased from Amersham (Roosendaal, The Netherlands). The binding experiments were performed at 30° C. in plastic tubes containing 40 μg protein in 0.5 mL (final volume) of binding buffer (50 mM Tris-HCl, 3 mM MgCl2, 1 mM EDTA, 100 mM NaCl, 0.1% bovine serum albumin, pH 7.4) supplemented with 20 μM GDP.
The assay was initiated by the addition of [^35S]-GTPγS (0.05 nM, final concentration). The tubes were incubated for 1 h. The incubations were terminated by the addition of 5 mL ice-cold washing buffer (50 mM Tris-HCl, 3 mM MgCl2, 1 mM EDTA, 100 mM NaCl). The suspension was immediately filtered through GF/B filters using a 48-well Brandell cell harvester and washed twice with the same ice-cold buffer. The radioactivity on the filters was counted as mentioned above. Assays were performed in triplicate.
as §1
Background: GTPγS is a poorly hydrolysed GTP analogue; its binding reports G protein activation.

A further series deals with TNBS-induced colitis. Put plainly: TNBS-induced colitis in mice. It counts as in vivo, C57B16 mice.
[2] abbreviates: hCB2 membranes, [3H]-CP-55,940 (1 nM), 30° C., 1 h, read-out: Ki CB2.
Where [3] appears, read: CB2 functional activity assay, basal = 100%, read-out: Emax, bound stated.
The mark [4] stands for this setting: percentage of stimulation of [35S]-GTPγS binding, basal value set at 100%, read-out: Functional activity at CB2 EMax.

T2 sequence (P34972 whole entry): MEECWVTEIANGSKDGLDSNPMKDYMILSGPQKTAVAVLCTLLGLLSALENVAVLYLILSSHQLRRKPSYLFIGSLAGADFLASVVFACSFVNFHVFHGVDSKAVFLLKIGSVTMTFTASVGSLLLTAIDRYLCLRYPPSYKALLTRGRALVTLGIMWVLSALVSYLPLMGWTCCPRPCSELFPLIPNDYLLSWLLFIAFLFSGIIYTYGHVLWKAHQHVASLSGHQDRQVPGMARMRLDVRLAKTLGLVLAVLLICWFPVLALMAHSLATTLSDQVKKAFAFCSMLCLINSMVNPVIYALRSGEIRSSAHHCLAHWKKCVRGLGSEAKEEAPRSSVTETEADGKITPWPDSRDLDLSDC
T1 sequence (P34972 whole entry): as above

By Ki is commonly meant the equilibrium dissociation constant of an inhibitor or competing ligand from its target. By melting point is commonly meant the temperature, or range, at which the solid turns liquid. The term Emax denotes the maximal effect, on the per cent scale that the assay sets. In general, EC50 refers to the concentration needed to bring the measured effect to its halfway point. For the compound `CCCCCn1cc(C(=O)NC23CC4CC(CC(C4)C2)C3)c(=O)cc1C` [Compound 38, N3-(1-Adamantyl)-6-methyl-4-oxo-1-pentyl-1,4-dihydropyridine-3-carboxamide], the melting point was found to be 195 °C. In series [1] (binding affinity (Ki) at the CB2 receptor), this compound registered an inhibition constant (Ki) of less than 500 nM. The Ki in series [1] (setting [2]) was 20 ± 3 nM. Also, the “functional character at the CB2 receptor (agonist / inverse agonist)” value on hCB2 receptor (CB2 functional activity assay) is listed as “agonists”. Also, the Emax at hCB2 receptor (setting [3]) is greater than 135%. The concentration for a half-maximal effect (EC50) on hCB2 receptor was found to be 5.5 ± 1.1 nM. Besides, the Emax on hCB2 receptor (setting [4]) was determined as 148 ± 2%. For the same compound, in the series with TNBS-induced colitis (TNBS only 20±5), the “MPO activity in colon (neutrophils content)” value stood at 14±4. In the series on TNBS-induced colitis (TNBS only 26±8), the “TNF-alpha mRNA expression in colon” value came to 18±4. The “IL-1beta mRNA expression in colon” value in the series on TNBS-induced colitis (TNBS only 1610±1041) came to 385±192. In the series with TNBS-induced colitis (intraperitoneally once daily from 3 days before TNBS, killed 3 days after TNBS, TNBS only 3.1±0.3), the “colitis macroscopic score (Wallace criteria, scale 0 to 10)” value worked out at 1.8±0.7. For the same compound, the “histological score (Ameho criteria, scale 0 to 6)” value with TNBS-induced colitis (intraperitoneally once daily, TNBS only 3.7±1) is 2.5±0.8. Also, in the series on TNBS-induced colitis (vs TNBS only), the “decrease in colitis macroscopic scores” value was found to be 42% and the “decrease of MPO activity” value came out at 34%.

`CCCCCn1cc(C(=O)NC23CC4CC(C)(CC(C)(C4)C2)C3)c(=O)cc1-c1ccccc1` [Compound 9, N3-(1-(3,5-Dimethyl)adamantyl)-4-oxo-1-pentyl-6-phenyl-1,4-dihydropyridine-3-carboxamide] came in with a melting point of 133 °C. Moreover, the Ki in series [1] (setting [2]) amounted to 6.6 ± 0.7 nM. Also, at hCB2 receptor (CB2 functional activity assay), the “functional character at the CB2 receptor (agonist / inverse agonist)” value is reported as “inverse agonists”. Also, the maximal effect (Emax) on hCB2 receptor (setting [3]) was less than 62%. Moreover, at hCB2 receptor, the EC50 worked out at 5.8 ± 1.1 nM. For the same compound, the Emax at hCB2 receptor (setting [4]) was determined as 41 ± 2%.
